Test results taken from ChEMBL document CHEMBL3228010, “Potential antitumor agents. 29. Quantitative structure-activity relationships for the antileukemic bisquaternary ammonium heterocycles” (J Med Chem, 1979).

Key:
[1] = system: Mus musculus; assay: Toxicity in ip dosed C3H X DBA2 F1 hybrid mouse […] with mouse L1210 cells on day 0 and dosed once daily on days 1 to 5 measured after 50 days; format: organism-based; details: in vivo, 1200 h
[2] = Lipophilic-hydrophilic balance, Rm of the compound by partition chromatography; format: physicochemical
[3] = system: L1210; assay: Antitumor activity against mouse L1210 cells […] in ip dosed C3H X DBA2 F1 hybrid mouse on day 0 and dosed at LD10 level once daily on days 1 to 5 assessed as increase in life span relative to control; format: functional
[4] = system: L1210; assay: Antitumor activity against mouse L1210 cells […] in ip dosed C3H X DBA2 F1 hybrid mouse on day 0 and dosed once daily on days 1 to 5 assessed as increase in life span relative to control; format: functional

Cc1cc(Nc2ccc(C(=O)Nc3ccc(Nc4cc[n+](C)cc4)cc3)c(N)c2)c2cc(N)ccc2[n+]1C.[I-].[I-]
LD10 [1]: 110 mg/kg
Rm [2]: 0.16
log(ILSmax) [3]: 2.2
D40 [4]: 8.4 mg/kg

CC[n+]1cc(-c2ccc(NC(=O)c3ccc(Nc4cc[n+](CC)c5ccc(N)cc45)cc3N)cc2)c(N)nc1N.Cc1ccc(S(=O)(=O)[O-])cc1.Cc1ccc(S(=O)(=O)[O-])cc1
LD10 [1]: 100 mg/kg
Rm [2]: 0.33
log(ILSmax) [3]: 2.28
D40 [4]: 8.6 mg/kg

CC[n+]1cccc(NC(=O)c2ccc(NC(=O)c3ccc(C(=O)Nc4ccc(C(=O)Nc5ccc[n+](CC)c5)cc4OC)cc3)c(OC)c2)c1.Cc1ccc(S(=O)(=O)[O-])cc1.Cc1ccc(S(=O)(=O)[O-])cc1
LD10 [1]: 25 mg/kg
Rm [2]: -0.15
log(ILSmax) [3]: 1.86
D40 [4]: 10.3 mg/kg

CCC[n+]1ccc(-c2ccc(NC(=O)c3ccc(Nc4cc[n+](CCC)c5ccccc45)cc3)cc2)cc1.[Br-].[Br-]
LD10 [1]: 4.8 mg/kg
Rm [2]: 0.8
log(ILSmax) [3]: 1.6
D40 [4]: 4.8 mg/kg

CCC[n+]1cccc2cc(NC(=O)c3ccc(C(=O)Nc4ccc5c(ccc[n+]5CCC)c4)nc3)ccc21.Cc1ccc(S(=O)(=O)[O-])cc1.Cc1ccc(S(=O)(=O)[O-])cc1
LD10 [1]: 16 mg/kg
Rm [2]: 0.05
log(ILSmax) [3]: 1.51
D40 [4]: 14 mg/kg

CC[n+]1cccc(NC(=O)c2ccc(NC(=O)c3ccc(C(=O)Nc4ccc(C(=O)Nc5ccc[n+](CC)c5)cc4)c(N)c3)cc2)c1.Cc1ccc(S(=O)(=O)[O-])cc1.Cc1ccc(S(=O)(=O)[O-])cc1
LD10 [1]: 14 mg/kg
Rm [2]: -0.15
log(ILSmax) [3]: 2.13
D40 [4]: 2.4 mg/kg

C[n+]1ccc(Nc2ccc(NC(=O)c3ccc(Nc4cc[n+](C)c5ccccc45)cc3N)cc2)cc1.[I-].[I-]
LD10 [1]: 29 mg/kg
Rm [2]: 0.24
log(ILSmax) [3]: 2.18
D40 [4]: 1.1 mg/kg

CC[n+]1cccc(NC(=O)c2ccc(NC(=O)C34CCC(C(=O)Nc5ccc(C(=O)Nc6ccc[n+](CC)c6)cc5)(CC3)CC4)cc2)c1.Cc1ccc(S(=O)(=O)[O-])cc1.Cc1ccc(S(=O)(=O)[O-])cc1
LD10 [1]: 27 mg/kg
Rm [2]: 0.59
log(ILSmax) [3]: 1.65
D40 [4]: 18 mg/kg

CC[n+]1cccc(NC(=O)c2ccc(NC(=O)c3cccc(C(=O)Nc4ccc(C(=O)Nc5ccc[n+](CC)c5)cc4)c3)cc2)c1.Cc1ccc(S(=O)(=O)[O-])cc1.Cc1ccc(S(=O)(=O)[O-])cc1
LD10 [1]: 12 mg/kg
Rm [2]: 0.51
log(ILSmax) [3]: 1.6
D40 [4]: 12 mg/kg

CCCC[n+]1cccc(NC(=O)c2ccc(NC(=O)c3ccc(C(=O)Nc4ccc5c(ccc[n+]5CCCC)c4)cc3)cc2)c1.Cc1ccc(S(=O)(=O)[O-])cc1.Cc1ccc(S(=O)(=O)[O-])cc1
LD10 [1]: 32 mg/kg
Rm [2]: 0.85
log(ILSmax) [3]: 1.6
D40 [4]: 32 mg/kg

CC[n+]1ccc(-c2ccc(NC(=O)c3ccc(Nc4cc[n+](CC)c5ccccc45)cc3)cc2)cc1.Cc1ccc(S(=O)(=O)[O-])cc1.Cc1ccc(S(=O)(=O)[O-])cc1
LD10 [1]: 10 mg/kg
Rm [2]: 0.55
log(ILSmax) [3]: 1.98
D40 [4]: 2.7 mg/kg

CCCC[n+]1cccc(NC(=O)c2ccc(NC(=O)/C=C/c3ccc(C(=O)Nc4ccc(C(=O)Nc5ccc[n+](CCCC)c5)cc4)cc3)cc2)c1.Cc1ccc(S(=O)(=O)[O-])cc1.Cc1ccc(S(=O)(=O)[O-])cc1
LD10 [1]: 24 mg/kg
Rm [2]: 0.4
log(ILSmax) [3]: 1.72
D40 [4]: 14 mg/kg

CC[n+]1cccc2cc(NC(=O)c3ccc(C(=O)Nc4ccc(NC(=O)c5ccc6c(ccc[n+]6CC)c5)cc4)cc3)ccc21.Cc1ccc(S(=O)(=O)[O-])cc1.Cc1ccc(S(=O)(=O)[O-])cc1
LD10 [1]: 50 mg/kg
Rm [2]: -0.35
log(ILSmax) [3]: 1.9
D40 [4]: 35 mg/kg

CCC[n+]1ccc(Nc2ccc(C(=O)Nc3ccc(/C(C)=N/NC(=N)N)cc3)c(N)c2)c2cc(N)ccc21.Cc1ccc(S(=O)(=O)O)cc1.Cc1ccc(S(=O)(=O)[O-])cc1
LD10 [1]: 60 mg/kg
Rm [2]: 0.07
log(ILSmax) [3]: 2.2
D40 [4]: 10 mg/kg

CCC[n+]1cccc2cc(NC(=O)/C=C/c3ccc(C(=O)Nc4ccc5c(ccc[n+]5CCC)c4)cc3)ccc21.Cc1ccc(S(=O)(=O)[O-])cc1.Cc1ccc(S(=O)(=O)[O-])cc1
LD10 [1]: 20 mg/kg
Rm [2]: 0.5
log(ILSmax) [3]: 2
D40 [4]: 4.3 mg/kg

CCCC[n+]1cccc2cc(NC(=O)c3ccc(C(=O)Nc4ccc5c(ccc[n+]5CCCC)c4)nc3)ccc21.Cc1ccc(S(=O)(=O)[O-])cc1.Cc1ccc(S(=O)(=O)[O-])cc1
LD10 [1]: 175 mg/kg
Rm [2]: 0.31
log(ILSmax) [3]: 1.87
D40 [4]: 120 mg/kg

CCC[n+]1cccc2cc(NC(=O)c3ccc(-c4ccc(-c5ccc(-c6ccc(C(=O)Nc7ccc8c(ccc[n+]8CCC)c7)cc6)cc5)cc4)cc3)ccc21.Cc1ccc(S(=O)(=O)[O-])cc1.Cc1ccc(S(=O)(=O)[O-])cc1
LD10 [1]: 45 mg/kg
Rm [2]: 0.49
log(ILSmax) [3]: 2.01
D40 [4]: 17 mg/kg

CCCCC[n+]1cccc2cc(NC(=O)c3ccc(C(=O)Nc4ccc5c(ccc[n+]5CCCCC)c4)cc3)ccc21.Cc1ccc(S(=O)(=O)[O-])cc1.Cc1ccc(S(=O)(=O)[O-])cc1
LD10 [1]: 57 mg/kg
Rm [2]: 0.92
log(ILSmax) [3]: 1.62
D40 [4]: 55 mg/kg

CCCC[n+]1cccc2cc(NC(=O)c3ccc(NC(=O)c4ccc(C(=O)Nc5ccc6c(ccc[n+]6CCCC)c5)cc4)cc3)ccc21.Cc1ccc(S(=O)(=O)[O-])cc1.Cc1ccc(S(=O)(=O)[O-])cc1
LD10 [1]: 100 mg/kg
Rm [2]: 0.26
log(ILSmax) [3]: 1.91
D40 [4]: 41 mg/kg

CC[n+]1ccc(Nc2ccc(NC(=O)/C=C/c3ccc(C(=O)Nc4ccc(Nc5cc[n+](CC)cc5)cc4)cc3)cc2)cc1.Cc1ccc(S(=O)(=O)[O-])cc1.Cc1ccc(S(=O)(=O)[O-])cc1
LD10 [1]: 8 mg/kg
Rm [2]: -0.03
log(ILSmax) [3]: 2.2
D40 [4]: 1.6 mg/kg

CCC[n+]1cccc(-c2ccc(NC(=O)/C=C/c3ccc(C(=O)Nc4ccc(-c5ccc(-c6ccc(-c7ccc[n+](CCC)c7)cc6)cc5)cc4)cc3)cc2)c1.Cc1ccc(S(=O)(=O)[O-])cc1.Cc1ccc(S(=O)(=O)[O-])cc1
LD10 [1]: 20 mg/kg
Rm [2]: 0.02
log(ILSmax) [3]: 2.2
D40 [4]: 6.4 mg/kg

CCCCC[n+]1cccc2cc(NC(=O)COc3ccc(C(=O)Nc4ccc5c(ccc[n+]5CCCCC)c4)cc3)ccc21.Cc1ccc(S(=O)(=O)[O-])cc1.Cc1ccc(S(=O)(=O)[O-])cc1
LD10 [1]: 150 mg/kg
Rm [2]: 0.78
log(ILSmax) [3]: 1.53
D40 [4]: 100 mg/kg

CCC[n+]1cc(-c2ccc(NC(=O)c3ccc(C(=O)Nc4ccc(-c5c[n+](CCC)c(N)nc5N)cc4)cc3)cc2)c(N)nc1N.Cc1ccc(S(=O)(=O)[O-])cc1.Cc1ccc(S(=O)(=O)[O-])cc1
LD10 [1]: 50 mg/kg
Rm [2]: -0.08
log(ILSmax) [3]: 2.15
D40 [4]: 7 mg/kg

CC[n+]1ccc(Nc2ccc(NC(=O)c3ccc(C(=O)Nc4ccc(Nc5cc[n+](CC)c(N)n5)cc4)cc3)cc2)nc1N.Cc1ccc(S(=O)(=O)[O-])cc1.Cc1ccc(S(=O)(=O)[O-])cc1
LD10 [1]: 112 mg/kg
Rm [2]: -0.3
log(ILSmax) [3]: 2.06
D40 [4]: 10 mg/kg

CCC[n+]1cccc(NC(=O)c2ccc(NC(=O)c3ccc(C(=O)Nc4ccc(C(=O)Nc5ccc[n+](CCC)c5)c(N)c4)cc3)cc2N)c1.Cc1ccc(S(=O)(=O)[O-])cc1.Cc1ccc(S(=O)(=O)[O-])cc1
LD10 [1]: 30 mg/kg
Rm [2]: -0.38
log(ILSmax) [3]: 2.02
D40 [4]: 5 mg/kg

CCC[n+]1ccc(Nc2ccc(NC(=O)c3ccc(C(=O)Nc4ccc(Nc5cc[n+](CCC)cc5)cc4)cc3)cc2)cc1.Cc1ccc(S(=O)(=O)[O-])cc1.Cc1ccc(S(=O)(=O)[O-])cc1
LD10 [1]: 4.1 mg/kg
Rm [2]: 0.81
log(ILSmax) [3]: 1.99
D40 [4]: 0.6 mg/kg

CCCC[n+]1cccc2cc(NC(=O)c3ccc(-c4ccc(-c5ccc(-c6ccc(C(=O)Nc7ccc8c(ccc[n+]8CCCC)c7)cc6)cc5)cc4)cc3)ccc21.Cc1ccc(S(=O)(=O)[O-])cc1.Cc1ccc(S(=O)(=O)[O-])cc1
LD10 [1]: 57 mg/kg
Rm [2]: 0.74
log(ILSmax) [3]: 1.73
D40 [4]: 15 mg/kg

CCC[n+]1cccc2cc(NC(=O)c3ccc(C(=O)Nc4ccc5c(ccc[n+]5CCC)c4)c(N)c3)ccc21.Cc1ccc(S(=O)(=O)[O-])cc1.Cc1ccc(S(=O)(=O)[O-])cc1
LD10 [1]: 10 mg/kg
Rm [2]: 0.25
log(ILSmax) [3]: 1.92
D40 [4]: 3.9 mg/kg

CCCC[n+]1cccc2cc(NC(=O)COc3ccc(C(=O)Nc4ccc5c(ccc[n+]5CCCC)c4)cc3)ccc21.Cc1ccc(S(=O)(=O)[O-])cc1.Cc1ccc(S(=O)(=O)[O-])cc1
LD10 [1]: 210 mg/kg
Rm [2]: 0.41
log(ILSmax) [3]: 1.96
D40 [4]: 80 mg/kg

CCC[n+]1ccc(Nc2ccc(NC(=O)/C=C/c3ccc(/C=C/C(=O)Nc4ccc(Nc5cc[n+](CCC)cc5)cc4)cc3)cc2)cc1.[Br-].[Br-]
LD10 [1]: 25 mg/kg
Rm [2]: 0.46
log(ILSmax) [3]: 1.85
D40 [4]: 13 mg/kg

CC[n+]1ccc(Nc2ccc(C(=O)Nc3ccc(Nc4cc[n+](CC)c5ccccc45)cc3)cc2)cc1.[Br-].[Br-]
LD10 [1]: 10 mg/kg
Rm [2]: 0.45
log(ILSmax) [3]: 2.16
D40 [4]: 0.6 mg/kg

CC[n+]1cccc2cc(NC(=O)c3ccc(C(=O)Nc4ccc5c(ccc[n+]5CC)c4)nc3)ccc21.Cc1ccc(S(=O)(=O)[O-])cc1.Cc1ccc(S(=O)(=O)[O-])cc1
LD10 [1]: 6 mg/kg
Rm [2]: -0.15
log(ILSmax) [3]: 1.42
D40 [4]: 6 mg/kg
